Test results taken from ChEMBL document CHEMBL3885861, “Open TG-GATES”.

Organism: Rattus norvegicus
Test: Open TG-GATES - Regimen: Single
Assay type: toxicity, organism-based, Sprague-Dawley
Parameters: regimen Single, gender Male, age 6 weeks
Settings: in vivo, po, 30 mg/kg, route gavage, dose level Low; for APTT / Bas / Eos / Fbg / Hb / Ht / Lym / MCH / MCHC / MCV / Mono / Neu / PT / Plat / RBC / Ret / WBC: tissue Blood; for KIDNEY_L / KIDNEY_R / KIDNEY_TOTAL: tissue Kidney; for LIVER: tissue Liver; for A/G / ALP / ALT / AST / BUN / CRE / Ca / Cl / DBIL / GLC / IP / K / LDH / Na / PL / RALB / TBIL / TC / TG / TP / gamma-GTP: tissue Plasma

Brc1ccccc1 [BROMOBENZENE]
TERMINAL_BW (3 h): 190.8 g
APTT (3 h): 14.7 s
Bas (3 h): 0%
Eos (3 h): 0.8%
Fbg (3 h): 276.2 mg/dL
Hb (3 h): 12.9 g/dL
Ht (3 h): 38.6%
Lym (3 h): 77%
MCH (3 h): 21.7 pg
MCHC (3 h): 33.6%
MCV (3 h): 64.5 fL
Mono (3 h): 3%
Neu (3 h): 18.4%
PT (3 h): 12.3 s
Plat (3 h): 116 x10_4/uL
RBC (3 h): 597.6 x10_4/ul
Ret (3 h): 9.5%
WBC (3 h): 95.3 x10_2/uL
KIDNEY_L (3 h): 0.8 g
KIDNEY_R (3 h): 0.8 g
KIDNEY_TOTAL (3 h): 1.6 g
LIVER (3 h): 7.9 g
A/G (3 h): 0.9
ALP (3 h): 1807.2 IU/L
ALT (3 h): 47.6 IU/L
AST (3 h): 80 IU/L
BUN (3 h): 11 mg/dL
CRE (3 h): 0.2 mg/dL
Ca (3 h): 11.4 mg/dL
Cl (3 h): 106.2 meq/L
DBIL (3 h): 0.024 mg/dL
GLC (3 h): 182 mg/dL
IP (3 h): 9.4 mg/dL
K (3 h): 4 meq/L
LDH (3 h): 75.6 IU/L
Na (3 h): 141.6 meq/L
PL (3 h): 174.2 mg/dL
RALB (3 h): 2.6 g/dL
TBIL (3 h): 0.056 mg/dL
TC (3 h): 93.6 mg/dL
TG (3 h): 80.6 mg/dL
TP (3 h): 5.7 g/dL
gamma-GTP (3 h): 1.2 IU/L
TERMINAL_BW (6 h): 192.5 g
APTT (6 h): 15.9 s
Bas (6 h): 0%
Eos (6 h): 1%
Fbg (6 h): 250 mg/dL
Hb (6 h): 12.8 g/dL
Ht (6 h): 38.3%
Lym (6 h): 78.6%
MCH (6 h): 21.7 pg
MCHC (6 h): 33.3%
MCV (6 h): 65 fL
Mono (6 h): 3.4%
Neu (6 h): 16.6%
PT (6 h): 12.6 s
Plat (6 h): 110.6 x10_4/uL
RBC (6 h): 590.4 x10_4/ul
Ret (6 h): 9.4%
WBC (6 h): 105.9 x10_2/uL
KIDNEY_L (6 h): 0.8 g
KIDNEY_R (6 h): 0.8 g
KIDNEY_TOTAL (6 h): 1.6 g
LIVER (6 h): 7.4 g
A/G (6 h): 0.9
ALP (6 h): 1769.6 IU/L
ALT (6 h): 41 IU/L
AST (6 h): 75.8 IU/L
BUN (6 h): 10.6 mg/dL
CRE (6 h): 0.2 mg/dL
Ca (6 h): 11.1 mg/dL
Cl (6 h): 107.2 meq/L
DBIL (6 h): 0.018 mg/dL
GLC (6 h): 180.8 mg/dL
IP (6 h): 10.3 mg/dL
K (6 h): 3.9 meq/L
LDH (6 h): 71.2 IU/L
Na (6 h): 141.8 meq/L
PL (6 h): 139.2 mg/dL
RALB (6 h): 2.5 g/dL
TBIL (6 h): 0.058 mg/dL
TC (6 h): 74.6 mg/dL
TG (6 h): 53 mg/dL
TP (6 h): 5.3 g/dL
gamma-GTP (6 h): 1.4 IU/L
TERMINAL_BW (9 h): 193.2 g
APTT (9 h): 15.6 s
Bas (9 h): 0%
Eos (9 h): 1%
Fbg (9 h): 262.2 mg/dL
Hb (9 h): 13.3 g/dL
Ht (9 h): 39.4%
Lym (9 h): 70.8%
MCH (9 h): 21.5 pg
MCHC (9 h): 33.7%
MCV (9 h): 64 fL
Mono (9 h): 3.2%
Neu (9 h): 24.6%
PT (9 h): 12.7 s
Plat (9 h): 118.3 x10_4/uL
RBC (9 h): 617.2 x10_4/ul
Ret (9 h): 9%
WBC (9 h): 92.1 x10_2/uL
KIDNEY_L (9 h): 0.8 g
KIDNEY_R (9 h): 0.8 g
KIDNEY_TOTAL (9 h): 1.6 g
LIVER (9 h): 7 g
A/G (9 h): 0.9
ALP (9 h): 1907.6 IU/L
ALT (9 h): 41.2 IU/L
AST (9 h): 73.4 IU/L
BUN (9 h): 10.2 mg/dL
CRE (9 h): 0.1 mg/dL
Ca (9 h): 10.7 mg/dL
Cl (9 h): 106.2 meq/L
DBIL (9 h): 0.016 mg/dL
GLC (9 h): 189.6 mg/dL
IP (9 h): 11.5 mg/dL
K (9 h): 3.9 meq/L
LDH (9 h): 72.8 IU/L
Na (9 h): 142.2 meq/L
PL (9 h): 136.8 mg/dL
RALB (9 h): 2.5 g/dL
TBIL (9 h): 0.058 mg/dL
TC (9 h): 79.6 mg/dL
TG (9 h): 41.6 mg/dL
TP (9 h): 5.3 g/dL
gamma-GTP (9 h): 1.6 IU/L
TERMINAL_BW (24 h): 199 g
APTT (24 h): 15.2 s
Bas (24 h): 0%
Eos (24 h): 1.2%
Fbg (24 h): 248.6 mg/dL
Hb (24 h): 12.7 g/dL
Ht (24 h): 37.2%
Lym (24 h): 71.6%
MCH (24 h): 21.4 pg
MCHC (24 h): 34%
MCV (24 h): 63.1 fL
Mono (24 h): 3.4%
Neu (24 h): 23.6%
PT (24 h): 12.3 s
Plat (24 h): 117.9 x10_4/uL
RBC (24 h): 589.2 x10_4/ul
Ret (24 h): 8.2%
WBC (24 h): 96.4 x10_2/uL
KIDNEY_L (24 h): 0.8 g
KIDNEY_R (24 h): 0.8 g
KIDNEY_TOTAL (24 h): 1.7 g
LIVER (24 h): 9.2 g
A/G (24 h): 0.9
ALP (24 h): 1811.4 IU/L
ALT (24 h): 52.8 IU/L
AST (24 h): 78.8 IU/L
BUN (24 h): 15.4 mg/dL
CRE (24 h): 0.2 mg/dL
Ca (24 h): 10.4 mg/dL
Cl (24 h): 106.2 meq/L
DBIL (24 h): 0.012 mg/dL
GLC (24 h): 196.8 mg/dL
IP (24 h): 8.1 mg/dL
K (24 h): 4.2 meq/L
LDH (24 h): 112.6 IU/L
Na (24 h): 141.6 meq/L
PL (24 h): 137.4 mg/dL
RALB (24 h): 2.5 g/dL
TBIL (24 h): 0.05 mg/dL
TC (24 h): 71.8 mg/dL
TG (24 h): 79.4 mg/dL
TP (24 h): 5.4 g/dL
gamma-GTP (24 h): 0.8 IU/L
